Laboratory results as given in patent US20250108051A1, “THERAPEUTIC AGENT FOR CANCER” (TOHOKU UNIVERSITY, priority 2022, published 2025).

Columns and labels:
HT29 cell line = assay: Annexin V-PI apoptosis assay; format: cell-based; conditions: TRE 10 μM, ENC 10 nM, BIN 10 nM, 72 hours, TRE vs DMSO
Experimental: (§1) Thereafter, the cells were collected, washed with PBS, and stained with Annexin V and PI using Annexin V-FITC Apoptosis Detection Kit (Nakalai Tesque). Apoptotic cells were detected using CytoFLEX LX. A proportion of cells positive for Annexin V was calculated as a proportion of apoptotic cells. The above was performed three times as an independent experiment. Student's test was used for a significant difference test.

RKO cell line = assay: Annexin V-PI apoptosis assay; format: cell-based; conditions: TRE 10 μM, ENC 100 nM, BIN 100 nM, 72 hours, TRE vs DMSO
Experimental: as §1

[1] = tested on: HT29 (BRAF V600E-mutated colorectal cancer cell line); assay: MTT assay, encorafenib + binimetinib with retinoid; format: cell-based; conditions: ATRA 0, 1.0 or 10 μM; encorafenib and binimetinib 0 to 10 μM
Experimental: (§2) RKO cells were seeded on a 96-well plate with the number of cells of 1.5×10^3 cells/well, CO115 cells were seeded on a 96-well plate with the number of cells of 2.5×10^3 cells/well, and HT29 cells and WiDR cells were respectively seeded on 96-well plates with the number of cells of 6×10^3 cells/well. After incubation for about 24 hours until the cell density reached 40% to 60%, the drug was administered. After incubation at 37° C. for 72 hours, the MTT assay was performed using Cell Counting Kit-8 (Dojindo Laboratories, Kumamoto, Japan). To each well was added 10 μl of Cell Counting Kit-8 solution, the plates were placed in a culture vessel at 5% CO2 and 37° C. for 120 minutes to perform a color reaction, and then the absorbance at 450 nm was measured and evaluated with a microplate reader SpectraMax M2e (Molecular Devices, Sunnyvale, CA, USA). Cells administered with 0.1% DMSO were used as a control. The above was performed three or more times as independent experiments.
(§3) In various kinds of colorectal cancer cell lines, the inhibition effect of a BRAF inhibitor (encorafenib) and an MEK inhibitor (binimetinib) for the viability of cells and the enhancement by ATRA were examined. […] The horizontal axis indicates component concentrations of encorafenib and binimetinib in a range of 0 μM to 10 μM, and the vertical axis indicates the cell viability when 0 μM, 1.0 μM, or 10 μM (each bar graph) of ATRA was administered. As shown in the drawing, encorafenib and binimetinib were used in an equal molar concentration.
(§4) As the compounds for acting and on a retinoid receptor, retinol, tamibarotene, bexarotene among the retinoids were used. As the cell lines, the above-described cell lines including RKO, HT29, and CO115 were used. As the BRAF inhibitor and the MEK inhibitor to be used in combination, a component (EB) obtained by mixing encorafenib and binimetinib in equal amounts was used as in Test Example 2.
as §4, with “acting” for “acting and”, “tamibarotene, and” for “tamibarotene,”, “colorectal cancer” for “above-described”, “HT29, CO115, WiDR, COLO205,” for “HT29,”, “LIM2405 described above” for “CO115”

[2] = tested on: CO115 (BRAF V600E-mutated colorectal cancer cell line); assay: MTT assay, encorafenib + binimetinib with retinoid; format: cell-based; conditions: ATRA 0, 1.0 or 10 μM; encorafenib and binimetinib 0 to 10 μM
Experimental: as §2, §3, §4
as §4, with “acting” for “acting and”, “tamibarotene, and” for “tamibarotene,”, “colorectal cancer” for “above-described”, “HT29, CO115, WiDR, COLO205,” for “HT29,”, “LIM2405 described above” for “CO115”

[3] = tested on: cleaved PARP in RKO cell line; assay: Western blot of cleaved PARP under RARα or RXRα knockdown; format: cell-based
Experimental: To the collected cells were added Radioimmunoprecipitation assay buffer (composition: 50 mM Tris-HCL, pH 8.0, 150 mM Sodium Chloride, 0.5 w/v % Sodium Deoxycholate, 0.1 w/v % Sodium Dodecyl Sulfate, 1.0 w/v % NP-40 substitute) supplemented with Halt Protease Inhibitor Cocktail (Thermo Fisher Scientific Inc.), followed by dissolving the cells, and a protein was extracted. The extracted protein was quantified by a bicinchoninic acid method. A protein sample in an amount of 5 μg was separated by polyacrylamide electrophoresis, and the separated protein sample was transferred to Polyvinylidene difluoride membrane (PVDF membrane, Merck Millipore Ltd.), followed by blocking with Odyssey Blocking Buffer (Licor Inc.) for 1 hour at room temperature. Thereafter, the PVDF membrane after transfer was immersed in a primary antibody solution, followed by culturing at room temperature for 2 hours or at 4° C. overnight. After the primary antibody reaction, the PVDF membrane was washed with Tris Buffered Saline with Tween 20 (TBS-T) for 5 minutes at room temperature for three times and immersed in a secondary antibody, followed by incubating at room temperature for 1 hour. As the secondary antibody, Goat anti-Rabbit IgG (H+L) Highly Cross-Adsorbed Secondary Antibody Alexa Fluor680 (Thermo Fisher Scientific Inc.) and Goat anti-Mouse IgG (H+L) Highly Cross-Adsorbed Secondary Antibody Alexa Fluor680 (Thermo Fisher Scientific Inc.) were used at a dilution ratio of 1:1000. Thereafter, washing with TBS-T for 5 minutes was performed three times, and a measurement of signals was performed using an Odyssey Infrared Imaging System (Licor Inc.). […] The above was performed three or more times as independent experiments. Student's test was used for a significant difference test.

HT29 cells = assay: Xenograft mouse model (Test Example 5), tumor volume and body weight; format: in vivo; conditions: nude mice, ATRA 10 mg/kg oral daily for 21 days
Experimental: As an in vivo test, the therapeutic agent for cancer according to the embodiment was administered to a mouse, and the antitumor effect was verified based on a change in tumor size (volume). Xenograft mouse model was prepared as follows. Female nude mice (BALB/c-nu) were purchased from Charles River Laboratories Japan (Yokohama, Japan) and raised in a specific pathogen-free environment. The above-described HT29 cells cultured were collected with trypsin, and suspended in a mixed solution of a culture medium and a Corning Matrigel basement membrane matrix (Corning, NY, USA) so as to reach 1×10^7 cells/ml. Into a left abdominal region of each mouse was subcutaneously implanted 0.1 mL of cell suspension. […] Encorafenib was orally administered at a dose of 10 mg/kg daily, and ATRA was orally administered at a dose of 10 mg/kg daily for 21 days. Feeding needles for mice were used for oral administration. Cetuximab was intraperitoneally administered twice a week at a dose of 20 mg/kg. Each solvent was used as the control. The tumor size and the body weight were measured every three days after the start of the therapy, and the volume was estimated using a calculation formula (tumor volume (mm^3)=½× major axis (mm)×[…]). […]

[4] = tested on: WiDR (BRAF V600E-mutated colorectal cancer cell line); assay: MTT assay, encorafenib + binimetinib with retinoid; format: cell-based; conditions: ATRA 0, 1.0 or 10 μM; encorafenib and binimetinib 0 to 10 μM
Experimental: as §2, §3
as §4, with “acting” for “acting and”, “tamibarotene, and” for “tamibarotene,”, “colorectal cancer” for “above-described”, “HT29, CO115, WiDR, COLO205,” for “HT29,”, “LIM2405 described above” for “CO115”

## CC1=C(/C=C/C(C)=C/C=C/C(C)=C/C(=O)O)C(C)(C)CCC1 [ATRA, all-trans retinoic acid]
HT29 cell line
  apoptotic cell proportion (Annexin V positive): no significant change
RKO cell line
  apoptotic cell proportion (Annexin V positive): no significant change
[1]
  cell viability with encorafenib and binimetinib as a function of ATRA concentration: the higher the concentration of ATRA is, the lower the cell viability is
[2]
  cell viability with encorafenib and binimetinib as a function of ATRA concentration: the higher the concentration of ATRA is, the lower the cell viability is
[3]; RARα inhibited
  enhancement by TRE of expression level of cleaved PARP caused by ENC+BIN: about 8 times
  enhancement by TRE of expression level of cleaved PARP caused by ENC+BIN+CET: about 3 times
[3]; RXRα inhibited
  enhancement by TRE of expression level of cleaved PARP caused by ENC+BIN: about 1.5 times
  enhancement by TRE of expression level of cleaved PARP caused by ENC+BIN+CET: about 2 times
[3]; si-NC
  enhancement by TRE of expression level of cleaved PARP caused by ENC+BIN: about 13 times
  enhancement by TRE of expression level of cleaved PARP caused by ENC+BIN+CET: about 11 times
HT29 cells
  side effects (body weight): does not cause any significant side effects
HT29 cells; encorafenib 10 mg/kg oral daily, cetuximab 20 mg/kg i.p. twice a week
  tumor volume (tumor size) change: increased with day
[4]
  cell viability with encorafenib and binimetinib as a function of ATRA concentration: the higher the concentration of ATRA is, the lower the cell viability is
